# Reference: ChEMBL document CHEMBL5136992, “Fascinating Transformation of SAM-Competitive Protein Methyltransferase Inhibitors from Nucleoside Analogues to Non-Nucleoside Analogues” (J Med Chem, 2022)
# Tests used:
# [1] = target: T1, Histone-lysine N-methyltransferase, H3 lysine-79 specific (Homo sapiens, UniProt Q8TEK3); experiment: Inhibition of DOT1L (unknown origin)
# cells = conditions: Homo sapiens, MCF-10A
# Description: Inhibition of methylation of H3K79 in human MCF-10A cells by fluorescence assay
# [2] = target: T2, Histone-lysine N-methyltransferase EZH2 (Homo sapiens, UniProt Q15910, Y641N); experiment: Binding affinity to EZH2 Y641N mutant (unknown origin) assessed as inhibition constant
# T2 sequence (Q15910 whole entry Y641N): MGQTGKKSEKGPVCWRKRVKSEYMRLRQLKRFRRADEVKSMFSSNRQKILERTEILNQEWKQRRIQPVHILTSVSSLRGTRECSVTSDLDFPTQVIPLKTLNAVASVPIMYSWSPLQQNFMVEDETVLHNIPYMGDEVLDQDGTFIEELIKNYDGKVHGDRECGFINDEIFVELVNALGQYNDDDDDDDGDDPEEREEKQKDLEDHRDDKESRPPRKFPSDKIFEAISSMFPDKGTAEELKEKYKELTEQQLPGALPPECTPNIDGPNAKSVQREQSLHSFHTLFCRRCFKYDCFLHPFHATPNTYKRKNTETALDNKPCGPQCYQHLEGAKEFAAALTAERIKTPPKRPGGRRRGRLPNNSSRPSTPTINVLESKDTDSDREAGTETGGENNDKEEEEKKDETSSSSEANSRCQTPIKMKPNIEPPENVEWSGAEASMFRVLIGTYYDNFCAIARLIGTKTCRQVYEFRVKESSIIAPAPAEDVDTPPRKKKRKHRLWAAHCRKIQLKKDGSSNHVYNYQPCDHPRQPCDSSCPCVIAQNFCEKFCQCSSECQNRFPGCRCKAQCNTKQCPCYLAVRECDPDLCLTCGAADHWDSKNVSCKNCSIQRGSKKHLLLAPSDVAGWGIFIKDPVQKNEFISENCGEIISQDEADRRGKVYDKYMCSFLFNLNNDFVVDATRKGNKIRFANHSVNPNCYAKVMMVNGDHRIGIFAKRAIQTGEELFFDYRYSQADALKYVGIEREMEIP
# [3] = Aqueous solubility of the compound; assay type: physicochemical; conditions: buffer
# [4] = target: T3, Histone-lysine N-methyltransferase EZH2 (Homo sapiens, UniProt Q15910); experiment: Inhibition of EZH2 (unknown origin)
# Target sequence in this assay (Q15910 whole entry): as the sequence (Q15910 whole entry Y641N) above, with N641Y counted along it
# [5] = target: T4, Histone-lysine N-methyltransferase EHMT1 (Homo sapiens, UniProt Q9H9B1); experiment: Inhibition of EHMT1 (unknown origin)
# T4 sequence (Q9H9B1 whole entry): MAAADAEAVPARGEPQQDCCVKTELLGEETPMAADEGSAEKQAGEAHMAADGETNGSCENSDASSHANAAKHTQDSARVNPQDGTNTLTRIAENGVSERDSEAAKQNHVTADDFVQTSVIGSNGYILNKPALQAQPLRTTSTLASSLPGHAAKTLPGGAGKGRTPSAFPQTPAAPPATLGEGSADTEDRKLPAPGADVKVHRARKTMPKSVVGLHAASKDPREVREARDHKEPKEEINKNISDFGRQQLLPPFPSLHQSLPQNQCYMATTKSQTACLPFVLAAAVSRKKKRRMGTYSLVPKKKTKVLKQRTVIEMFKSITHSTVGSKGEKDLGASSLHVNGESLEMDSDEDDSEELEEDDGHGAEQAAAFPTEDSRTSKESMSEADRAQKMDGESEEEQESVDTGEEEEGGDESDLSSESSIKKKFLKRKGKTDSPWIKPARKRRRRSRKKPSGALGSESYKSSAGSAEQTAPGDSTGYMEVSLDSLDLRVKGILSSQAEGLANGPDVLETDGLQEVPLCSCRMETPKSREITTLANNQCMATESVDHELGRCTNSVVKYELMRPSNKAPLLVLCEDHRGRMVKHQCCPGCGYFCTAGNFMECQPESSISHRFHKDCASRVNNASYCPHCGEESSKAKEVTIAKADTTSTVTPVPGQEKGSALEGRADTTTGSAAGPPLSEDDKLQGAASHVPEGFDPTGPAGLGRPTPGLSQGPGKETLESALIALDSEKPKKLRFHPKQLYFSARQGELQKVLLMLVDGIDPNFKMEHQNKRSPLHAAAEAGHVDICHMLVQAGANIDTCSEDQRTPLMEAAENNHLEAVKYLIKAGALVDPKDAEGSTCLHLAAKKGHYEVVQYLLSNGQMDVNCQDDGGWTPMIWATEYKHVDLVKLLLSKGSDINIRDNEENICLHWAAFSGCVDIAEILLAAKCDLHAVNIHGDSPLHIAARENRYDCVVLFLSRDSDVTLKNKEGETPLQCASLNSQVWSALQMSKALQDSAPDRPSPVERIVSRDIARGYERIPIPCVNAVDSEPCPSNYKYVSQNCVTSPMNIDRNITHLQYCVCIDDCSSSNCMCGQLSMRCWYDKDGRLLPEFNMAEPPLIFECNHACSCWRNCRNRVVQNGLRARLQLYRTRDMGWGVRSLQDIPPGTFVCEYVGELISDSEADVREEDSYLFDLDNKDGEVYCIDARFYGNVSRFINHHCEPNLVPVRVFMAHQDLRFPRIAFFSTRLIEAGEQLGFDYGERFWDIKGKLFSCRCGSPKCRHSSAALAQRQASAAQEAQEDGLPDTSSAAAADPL
# [6] = target: T5, Histone-lysine N-methyltransferase SETD7 (Homo sapiens, UniProt Q8WTS6); experiment: Inhibition of SET7 (unknown origin)
# T5 sequence (Q8WTS6 whole entry): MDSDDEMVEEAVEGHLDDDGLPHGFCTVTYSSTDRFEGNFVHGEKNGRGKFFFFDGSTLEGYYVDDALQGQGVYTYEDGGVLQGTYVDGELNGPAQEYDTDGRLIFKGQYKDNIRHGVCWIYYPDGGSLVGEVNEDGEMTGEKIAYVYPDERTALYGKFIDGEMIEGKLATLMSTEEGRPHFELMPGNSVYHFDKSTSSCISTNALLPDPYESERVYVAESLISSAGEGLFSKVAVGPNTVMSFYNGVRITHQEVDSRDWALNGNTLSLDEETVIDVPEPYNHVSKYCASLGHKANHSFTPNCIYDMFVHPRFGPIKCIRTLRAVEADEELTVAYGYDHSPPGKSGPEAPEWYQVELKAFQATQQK
# [7] = target: T6, Histone-arginine methyltransferase CARM1 (Homo sapiens, UniProt Q86X55); experiment: Inhibition of PRMT4 (unknown origin)
# T6 sequence (Q86X55 whole entry): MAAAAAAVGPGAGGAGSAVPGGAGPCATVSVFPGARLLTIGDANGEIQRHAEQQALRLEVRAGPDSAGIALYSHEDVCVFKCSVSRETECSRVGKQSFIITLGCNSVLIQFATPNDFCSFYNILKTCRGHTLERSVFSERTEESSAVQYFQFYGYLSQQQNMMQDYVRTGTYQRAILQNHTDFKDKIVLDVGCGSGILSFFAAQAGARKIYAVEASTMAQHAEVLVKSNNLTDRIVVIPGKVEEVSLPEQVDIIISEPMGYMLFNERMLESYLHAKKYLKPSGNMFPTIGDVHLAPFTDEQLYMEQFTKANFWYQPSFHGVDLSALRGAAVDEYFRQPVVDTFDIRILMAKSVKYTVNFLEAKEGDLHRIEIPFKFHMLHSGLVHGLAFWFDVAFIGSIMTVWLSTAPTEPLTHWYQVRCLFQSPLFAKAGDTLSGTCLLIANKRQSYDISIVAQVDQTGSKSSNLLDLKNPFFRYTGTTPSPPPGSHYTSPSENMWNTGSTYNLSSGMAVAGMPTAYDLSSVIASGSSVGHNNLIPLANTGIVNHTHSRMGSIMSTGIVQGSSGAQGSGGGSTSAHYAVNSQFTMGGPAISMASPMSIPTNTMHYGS
# [8] = target: Protein arginine N-methyltransferase 5 (Homo sapiens, UniProt O14744); experiment: Inhibition of PRMT5 (unknown origin)
# Chain of Protein arginine N-methyltransferase 5 (O14744 whole entry): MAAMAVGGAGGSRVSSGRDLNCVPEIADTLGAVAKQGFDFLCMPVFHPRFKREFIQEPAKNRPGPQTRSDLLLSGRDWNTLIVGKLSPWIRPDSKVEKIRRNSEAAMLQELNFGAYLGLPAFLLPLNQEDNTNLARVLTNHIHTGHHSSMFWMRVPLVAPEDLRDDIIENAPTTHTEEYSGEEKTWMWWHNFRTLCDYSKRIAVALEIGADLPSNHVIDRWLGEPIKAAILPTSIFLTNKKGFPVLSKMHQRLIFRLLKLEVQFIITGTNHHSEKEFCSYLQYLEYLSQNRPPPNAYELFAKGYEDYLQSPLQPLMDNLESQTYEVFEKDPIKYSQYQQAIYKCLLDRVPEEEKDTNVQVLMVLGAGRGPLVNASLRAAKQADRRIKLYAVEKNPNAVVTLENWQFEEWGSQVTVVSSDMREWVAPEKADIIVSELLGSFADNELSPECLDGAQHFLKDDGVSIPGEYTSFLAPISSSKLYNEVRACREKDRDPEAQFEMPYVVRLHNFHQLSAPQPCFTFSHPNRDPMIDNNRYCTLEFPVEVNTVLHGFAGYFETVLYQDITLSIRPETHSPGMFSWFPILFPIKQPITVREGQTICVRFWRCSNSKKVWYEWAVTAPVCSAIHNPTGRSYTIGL
# MV4-11 = experiment: Antiproliferative activity against human MV4-11 cells; assay type: functional, cell-based
# [9] = target: T2, Histone-lysine N-methyltransferase EZH2; experiment: Inhibition of EZH2 Y641N mutant (unknown origin)
# [10] = target: T3, Histone-lysine N-methyltransferase EZH2; experiment: Inhibition of wild type EZH2 (unknown origin)
# Target sequence in this assay (Q15910 whole entry): as the sequence (Q15910 whole entry Y641N) above, with N641Y counted along it
# [11] = target: T3, Histone-lysine N-methyltransferase EZH2; experiment: Binding affinity to EZH2 (unknown origin) assessed as inhibition constant
# Target sequence in this assay (Q15910 whole entry): as the sequence (Q15910 whole entry Y641N) above, with N641Y counted along it
# [12] = target: T7, Histone-lysine N-methyltransferase EHMT2 (Homo sapiens, UniProt Q96KQ7); experiment: Inhibition of G9a (unknown origin)
# T7 sequence (Q96KQ7 whole entry): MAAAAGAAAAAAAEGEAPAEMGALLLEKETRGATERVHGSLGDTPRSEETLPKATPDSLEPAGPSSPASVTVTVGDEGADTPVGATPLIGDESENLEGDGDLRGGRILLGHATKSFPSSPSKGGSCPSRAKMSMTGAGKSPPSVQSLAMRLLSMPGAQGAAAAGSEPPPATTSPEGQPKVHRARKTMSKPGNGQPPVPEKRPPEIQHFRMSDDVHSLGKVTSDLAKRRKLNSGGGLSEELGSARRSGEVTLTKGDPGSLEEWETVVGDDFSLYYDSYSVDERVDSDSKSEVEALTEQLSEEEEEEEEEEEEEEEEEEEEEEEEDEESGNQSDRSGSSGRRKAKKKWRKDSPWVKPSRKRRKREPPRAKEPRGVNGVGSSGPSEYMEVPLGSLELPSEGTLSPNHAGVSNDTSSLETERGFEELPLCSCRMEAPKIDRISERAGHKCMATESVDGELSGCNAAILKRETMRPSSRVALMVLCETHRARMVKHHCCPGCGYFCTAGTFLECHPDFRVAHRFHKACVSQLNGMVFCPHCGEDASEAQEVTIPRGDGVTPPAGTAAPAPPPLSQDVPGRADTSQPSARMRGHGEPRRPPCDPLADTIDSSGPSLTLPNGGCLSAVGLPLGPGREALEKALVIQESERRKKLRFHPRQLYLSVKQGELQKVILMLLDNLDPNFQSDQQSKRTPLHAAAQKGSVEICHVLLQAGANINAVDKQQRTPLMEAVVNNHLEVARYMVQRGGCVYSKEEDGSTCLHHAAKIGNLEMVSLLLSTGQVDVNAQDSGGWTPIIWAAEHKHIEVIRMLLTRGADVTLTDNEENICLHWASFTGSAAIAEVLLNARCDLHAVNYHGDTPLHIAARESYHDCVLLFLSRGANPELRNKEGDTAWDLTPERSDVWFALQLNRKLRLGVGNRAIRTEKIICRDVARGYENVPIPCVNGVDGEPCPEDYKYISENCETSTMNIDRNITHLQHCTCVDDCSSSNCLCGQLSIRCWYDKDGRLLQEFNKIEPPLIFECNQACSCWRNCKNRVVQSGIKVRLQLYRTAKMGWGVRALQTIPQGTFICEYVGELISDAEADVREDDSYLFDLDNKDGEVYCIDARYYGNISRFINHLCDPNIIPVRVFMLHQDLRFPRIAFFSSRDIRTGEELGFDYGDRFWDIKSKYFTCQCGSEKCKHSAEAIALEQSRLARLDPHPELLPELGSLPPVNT
# [13] = target: T1, Histone-lysine N-methyltransferase, H3 lysine-79 specific; experiment: Inhibition of human recombinant DOT1L by methyltransferase-Glo Bioluminescent assay
# [14] = target: Histone-lysine N-methyltransferase SETD2 (Homo sapiens, UniProt Q9BYW2); experiment: Inhibition of SETD2 (unknown origin)
# [15] = target: T3, Histone-lysine N-methyltransferase EZH2; experiment: Inhibition of EZH2 (unknown origin) assessed as residence time
# Target sequence in this assay (Q15910 whole entry, looked up): as the sequence (Q15910 whole entry Y641N) above, with N641Y counted along it
# [16] = target: Protein arginine N-methyltransferase 1 (Homo sapiens, UniProt Q99873); experiment: Inhibition of PRMT1 (unknown origin)
# Chain of Protein arginine N-methyltransferase 1 (Q99873 whole entry): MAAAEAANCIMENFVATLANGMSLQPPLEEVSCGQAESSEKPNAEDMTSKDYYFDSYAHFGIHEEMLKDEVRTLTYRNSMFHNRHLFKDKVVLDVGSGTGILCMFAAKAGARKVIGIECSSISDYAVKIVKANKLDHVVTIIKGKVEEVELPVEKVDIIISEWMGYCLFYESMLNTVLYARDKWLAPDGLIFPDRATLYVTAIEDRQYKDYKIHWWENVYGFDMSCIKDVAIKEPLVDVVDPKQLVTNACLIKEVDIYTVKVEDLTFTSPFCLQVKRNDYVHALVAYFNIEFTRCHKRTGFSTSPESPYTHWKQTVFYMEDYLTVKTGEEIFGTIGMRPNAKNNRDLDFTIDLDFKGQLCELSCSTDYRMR
# T1 sequence (Q8TEK3 whole entry): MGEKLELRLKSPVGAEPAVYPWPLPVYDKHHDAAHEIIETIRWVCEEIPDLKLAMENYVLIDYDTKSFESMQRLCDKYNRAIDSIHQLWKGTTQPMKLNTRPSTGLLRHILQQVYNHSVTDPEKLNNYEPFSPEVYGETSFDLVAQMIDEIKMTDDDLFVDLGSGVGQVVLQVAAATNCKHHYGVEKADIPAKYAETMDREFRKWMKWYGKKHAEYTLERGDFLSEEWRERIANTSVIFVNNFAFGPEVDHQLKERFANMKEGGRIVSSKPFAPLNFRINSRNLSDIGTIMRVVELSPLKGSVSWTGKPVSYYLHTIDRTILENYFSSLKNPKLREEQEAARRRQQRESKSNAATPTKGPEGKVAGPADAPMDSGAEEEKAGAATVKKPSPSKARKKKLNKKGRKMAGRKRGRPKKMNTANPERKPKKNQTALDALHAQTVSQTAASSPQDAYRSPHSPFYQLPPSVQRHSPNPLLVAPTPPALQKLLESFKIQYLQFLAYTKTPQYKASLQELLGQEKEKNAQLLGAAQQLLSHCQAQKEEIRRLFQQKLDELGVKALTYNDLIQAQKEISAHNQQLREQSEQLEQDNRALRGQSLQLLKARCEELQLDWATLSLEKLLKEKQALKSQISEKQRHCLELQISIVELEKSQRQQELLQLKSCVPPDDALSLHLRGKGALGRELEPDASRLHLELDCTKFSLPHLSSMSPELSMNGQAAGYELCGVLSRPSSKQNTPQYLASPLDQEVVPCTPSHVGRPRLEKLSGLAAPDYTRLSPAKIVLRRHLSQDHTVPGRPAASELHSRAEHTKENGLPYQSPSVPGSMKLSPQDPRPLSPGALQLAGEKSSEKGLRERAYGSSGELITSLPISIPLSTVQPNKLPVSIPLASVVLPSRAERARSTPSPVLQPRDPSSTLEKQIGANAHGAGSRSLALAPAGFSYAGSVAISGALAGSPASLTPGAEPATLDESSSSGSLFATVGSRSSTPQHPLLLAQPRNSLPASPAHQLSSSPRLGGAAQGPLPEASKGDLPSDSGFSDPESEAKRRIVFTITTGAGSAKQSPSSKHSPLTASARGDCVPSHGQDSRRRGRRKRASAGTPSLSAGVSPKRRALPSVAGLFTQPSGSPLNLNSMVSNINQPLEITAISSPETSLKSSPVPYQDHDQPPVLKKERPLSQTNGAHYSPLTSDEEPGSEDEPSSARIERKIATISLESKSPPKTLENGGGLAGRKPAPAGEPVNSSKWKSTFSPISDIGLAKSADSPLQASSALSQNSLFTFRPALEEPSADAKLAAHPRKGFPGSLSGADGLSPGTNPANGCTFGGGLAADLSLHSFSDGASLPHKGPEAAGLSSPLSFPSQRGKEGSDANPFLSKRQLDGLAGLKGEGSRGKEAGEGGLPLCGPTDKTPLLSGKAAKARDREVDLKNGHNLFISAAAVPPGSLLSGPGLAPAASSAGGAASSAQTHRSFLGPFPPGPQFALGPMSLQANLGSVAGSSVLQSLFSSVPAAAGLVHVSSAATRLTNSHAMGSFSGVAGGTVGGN
smiles,measurement,setting,value
CNc1ccnc(Nc2ccc3sc(Cl)c(-c4cc(-c5c(C)ncn(C)c5=O)cnc4Cl)c3c2)n1,IC50,[1],1400 nM
same,IC50,cells,23 nM
CO[C@@H](c1cc(Cl)c2c(c1Cl)C(=O)N(Cc1c(C)cc(C)[nH]c1=O)CC2)C1COC1,Ki,[2],< 0.1 nM
same,solubility,[3],315 µg/mL
CCC(CC)n1ncc2c(C(=O)NCc3c(C)cc(C)[nH]c3=O)cc(C3CC3)nc21,IC50,[4],149 nM
NC(=O)CNC(=O)Nc1ccc2ccn(-c3ccccc3Cl)c2c1,IC50,[1],9000 nM
Nc1ncnc2c1ncn2[C@H]1O[C@@H](C[C@H](N)CC[C@H](N)C(=O)O)[C@H](O)[C@@H]1O,IC50,[5],513000 nM
same,IC50,[1],26000 nM
same,IC50,[6],2500 nM
CC(C)(C)c1ccc(CC(=O)c2ncn(CC(=O)NCCn3ccc4c(N)ncnc43)n2)cc1,IC50,[1],1000 nM
NCCCN(CCCNc1ccccn1)C[C@@H]1O[C@H](n2cnc3c(N)ncnc32)[C@@H](O)[C@H]1O,IC50,[7],90 nM
Nc1cccc(CCC[C@@H]2C[C@H](n3ccc4c(N)ncnc43)[C@@H](O)[C@H]2O)n1,IC50,[8],0.4 nM
CN(CCCNC(=O)CNC(=O)Nc1ccc2sc(Cl)c(-c3cccnc3)c2c1)[C@@H]1CCCC(c2ncnc3[nH]ccc23)C1 (stereo partly drawn),IC50,[1],< 100 nM
COc1cccc(C(=O)NCc2c(C)cc(C)[nH]c2=O)c1Cl,IC50,[4],7.2 nM
Cc1cc(Nc2ccc3nc(C)cc(N)c3c2)nc(Nc2ccc3nc(C)cc(N)c3c2)n1,IC50,MV4-11,37100 nM
Cc1cc(C)c(CN2CCc3c(Cl)cc(-c4c(C)noc4C)c(Cl)c3C2=O)c(=O)[nH]1,IC50,[4],< 5 nM
same,solubility,[3],2 µg/mL
CCC(CC)n1ncc2c(C(=O)NCc3c(C)cc(C)[nH]c3=O)cc(C#N)cc21,IC50,[9],13 nM
same,IC50,[10],15 nM
CNc1ccnc(Nc2ccc3cc(C)n(-c4ccccc4Oc4cnc5c(c4)ncn5C)c3c2)n1,IC50,cells,16 nM
Cc1coc2c1C(=O)C(=O)c1c-2ccc2c1CC[C@@H](O)[C@]2(C)O,Ki,[11],194 nM
same,IC50,[4],550 nM
CCCc1cc(C)[nH]c(=O)c1CNC(=O)c1cc(-c2ccc(N3CCN(C(C)C)CC3)nc2)cc2c1cnn2C(C)C,IC50,[4],< 10 nM
CCNC(=O)NCCCSC[C@@H]1O[C@H](n2cnc3c(N)ncnc32)[C@@H](O)[C@H]1O,IC50,[8],6000 nM
CCCCCCNCCN(CC[C@H](N)C(=O)O)C[C@@H]1O[C@H](n2cnc3c(N)ncnc32)[C@@H](O)[C@H]1O,IC50,[6],> 10000 nM
Nc1ncnc2ccc(N(CC#CC(O)c3nccn3CCO)c3c(Cl)cccc3Cl)cc12 (stereo not drawn),IC50,[1],14000 nM
Nc1ncnc2c1ncn2[C@H]1O[C@@H](CSCC[C@H](N)C(=O)NCc2cc(-c3ccccc3)[nH]n2)[C@H](O)[C@@H]1O,IC50,[4],270 nM
Nc1ncnc2c1ncn2[C@H]1O[C@@H](CN(CCI)CCC[C@H](N)C(=O)O)[C@H](O)[C@@H]1O,IC50,[12],1800 nM
same,IC50,[7],1100 nM
COc1cc([C@H]2Oc3c(O)cc(CCCO)cc3[C@@H]2CO)ccc1O[C@@H]1O[C@@H](C)[C@@H](O)[C@@H](O)[C@H]1O,IC50,[13],399 nM
CCCN(CC[C@H](N)C(=O)O)C[C@@H]1O[C@H](n2cnc3c(N)ncnc32)[C@@H](O)[C@H]1O,IC50,[14],800 nM
Nc1ncnc2c1ccn2[C@H]1O[C@@H]([C@H](O)c2ccccc2)[C@H](O)[C@@H]1O,IC50,[8],9.5 nM
CSc1cc(C)[nH]c(=O)c1CNC(=O)c1c(C)n([C@@H](C)[C@H]2CC[C@H](N3CC(OC4CC4)C3)CC2)c2ccccc12,IC50,[4],0.057 nM
same,TIME,[15],57 h
N=C(N)NCCCN(CCCN)C[C@@H]1O[C@H](n2cnc3c(N)ncnc32)[C@@H](O)[C@H]1O,IC50,[7],2300 nM
same,IC50,[16],7200 nM
CC(C)N(CCCNC(=O)Nc1ccc(C(C)(C)C)cc1)C[C@@H]1O[C@H](n2cc(Br)c3c(N)ncnc32)[C@@H](O)[C@H]1O,IC50,cells,8.8 nM
Cc1cc(C)c(CNC(=O)c2c(C)n([C@H](C)C3CCN(CC(F)(F)F)CC3)c3ccccc23)c(=O)[nH]1,IC50,[4],22 nM
